Results: patent US20250230193A1, “CYCLIC COMPOUND HAVING SELECTIVE KRAS INHIBITORY EFFECT ON HRAS AND NRAS” (CHUGAI SEIYAKU KABUSHIKI KAISHA, priority 2022, published 2025)
Where a SMILES comes first, the peptide text is derived from it. Bridges are numbered along the chain shown (N, C = ends). [ ]: non-standard residue; d: D form. The star is where a group is joined. hPhe(3-Cl-4-CF3) = N[C@@H](CCc1ccc(C(F)(F)F)c(Cl)c1)C(=O)O; NPrPhe(4-CF3) = CCCN[C@@H](Cc1ccc(C(F)(F)F)cc1)C(=O)O; NEtPhe(4-Me) = CCN[C@@H](Cc1ccc(C)cc1)C(=O)O; NMeGly(cPent) = CN[C@H](C(=O)O)C1CCCC1; NMeD = CN[C@@H](CC(=O)O)C(=O)O; NMeL = CN[C@@H](CC(C)C)C(=O)O; Morpholide = C1CN(*)CCO1; Ac5c = NC1(C(=O)O)CCCC1; NEtG = CCNCC(=O)O; Sar = CNCC(=O)O

Columns and labels:
[1] = target: GDP-bound HRAS wild-type protein (Homo sapiens, UniProt P01112); assay: Binding to HRAS by surface plasmon resonance (SPR), Single Cycle Kinetics; conditions: for HRAS/KRAS (ratio of KD value with respect to GDP-bound HRAS wild-type protein to KD value with respect to KRAS): class symbols
[2] = target: GDP-bound NRAS wild-type protein (Homo sapiens, UniProt P01111); assay: Binding to NRAS by surface plasmon resonance (SPR), Single Cycle Kinetics; conditions: for NRAS/KRAS (ratio of KD value with respect to GDP-bound NRAS wild-type protein to KD value with respect to KRAS): class symbols
[3] = KD ratio, GDP-bound HRAS wild-type vs GDP-bound KRAS wild-type, SPR
[4] = KD ratio, GDP-bound NRAS wild-type vs GDP-bound KRAS wild-type, SPR

GDP-bound NRAS wild-type protein, sequence (P01111 whole entry): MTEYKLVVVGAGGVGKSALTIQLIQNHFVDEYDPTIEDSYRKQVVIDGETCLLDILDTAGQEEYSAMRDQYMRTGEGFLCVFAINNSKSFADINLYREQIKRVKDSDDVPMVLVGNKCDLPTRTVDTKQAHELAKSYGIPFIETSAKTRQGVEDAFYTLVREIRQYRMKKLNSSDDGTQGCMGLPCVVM
GDP-bound HRAS wild-type protein, sequence (P01112 whole entry): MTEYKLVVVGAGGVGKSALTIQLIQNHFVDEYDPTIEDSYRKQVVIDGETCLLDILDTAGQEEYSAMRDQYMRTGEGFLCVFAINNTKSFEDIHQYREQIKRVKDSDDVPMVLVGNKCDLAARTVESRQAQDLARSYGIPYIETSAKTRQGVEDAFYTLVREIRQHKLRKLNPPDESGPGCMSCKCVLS

SMILES: CCO[C@@H]1C[C@H]2C(=O)NC3(CCC3)C(=O)N(C)[C@@H](C3CCCC3)C(=O)N(C)[C@H](C(=O)N(C)C)CC(=O)N(C)[C@@H](CC3CCCC3)C(=O)N[C@@H]([C@@H](C)CC)C(=O)N(C)CC(=O)N(C)[C@H]3C/C=C\CCN(C3=O)[C@@H](Cc3ccc(C)cc3)C(=O)N(C)CC(=O)N[C@@H](CCc3cc(C)c(C(F)F)c(C)c3)C(=O)N2C1 [PP2675]
- HRAS/KRAS (ratio of KD value with respect to GDP-bound HRAS wild-type protein to KD value with respect to KRAS) [1]: A (a compound having 10 or more and less than 20 is denoted as A)
- NRAS/KRAS (ratio of KD value with respect to GDP-bound NRAS wild-type protein to KD value with respect to KRAS) [2]: A (a compound having 10 or more and less than 20 is denoted as A)

SMILES: CCC[C@H]1C(=O)N[C@@H]([C@@H](C)CC)C(=O)N(C2CC2)CC(=O)N(C)[C@H]2C/C=C\CCN(C2=O)[C@@H](Cc2ccc(C)cc2)C(=O)N(C)CC(=O)N[C@@H](CCc2ccc(Cl)c(Cl)c2)C(=O)N2C[C@H](OCC)C[C@H]2C(=O)NC2(CC(C)(C)C2)C(=O)N(C)[C@@H](CC2CC2)C(=O)N(C)[C@H](C(=O)N(C)C)CC(=O)N1C [PP2805]
- HRAS/KRAS (ratio of KD value with respect to GDP-bound HRAS wild-type protein to KD value with respect to KRAS) [1]: A (a compound having 10 or more and less than 20 is denoted as A)
- NRAS/KRAS (ratio of KD value with respect to GDP-bound NRAS wild-type protein to KD value with respect to KRAS) [2]: A (a compound having 10 or more and less than 20 is denoted as A)

SMILES: CC[C@H](C)[C@@H]1NC(=O)[C@H](CC(C)C)N(C)C(=O)C[C@@H](C(=O)N2CCOCC2)N(C)C(=O)[C@H](C2CCCC2)N(C)C(=O)C2(CCCC2)NC(=O)[C@@H]2CCCN2C(=O)[C@H](CCc2cc(F)c(C(F)(F)F)c(F)c2)NC(=O)CN(C)C(=O)[C@H](Cc2ccc(F)cc2)N2CCCCC[C@@H](C2=O)N(C)C(=O)CN(C)C1=O [PP0964]
- HRAS/KRAS (ratio of KD value with respect to HRAS to KD value with respect to KRAS) [1, 3]: B (a compound having 3 or more and less than 10 is denoted as B)
- NRAS/KRAS (ratio of KD value with respect to NRAS to KD value with respect to KRAS) [2, 4]: B (a compound having 3 or more and less than 10 is denoted as B)

SMILES: CCC[C@H]1C(=O)N[C@@H](CC(C)C)C(=O)N2C[C@@H](OC)C[C@H]2C(=O)N(C)[C@H]2C/C=C\CCN(C2=O)[C@@H](Cc2ccc(C)cc2)C(=O)N(C)CC(=O)N[C@@H](CCc2ccc(C(F)(F)F)c(OC)c2)C(=O)N2C[C@H](OCC)C[C@H]2C(=O)NC2(CCC2)C(=O)N(C)[C@@H](C2CCCC2)C(=O)N(C)[C@H](C(=O)N(C)C)CC(=O)N1C [PP2548]
- HRAS/KRAS (ratio of KD value with respect to GDP-bound HRAS wild-type protein to KD value with respect to KRAS) [1]: B (a compound having 3 or more and less than 10 is denoted as B)
- NRAS/KRAS (ratio of KD value with respect to GDP-bound NRAS wild-type protein to KD value with respect to KRAS) [2]: A (a compound having 10 or more and less than 20 is denoted as A)

SMILES: CCCN1C(=O)CN(C)C(=O)CN(C)C(=O)[C@H]([C@@H](C)CC)NC(=O)[C@H](CC(C)C)N(C)C(=O)C[C@@H](C(=O)N2CCOCC2)N(C)C(=O)[C@H](C2CCCC2)N(C)C(=O)C2(CCCC2)NC(=O)CN(CC)C(=O)[C@H](CCc2ccc(C(F)(F)F)c(Cl)c2)NC(=O)CN(C)C(=O)[C@@H]1Cc1ccc(C(F)(F)F)cc1 [PP0144] ([NMeL]I[Sar][Sar][NPrPhe(4-CF3)][Sar][hPhe(3-Cl-4-CF3)][NEtG][Ac5c][NMeGly(cPent)][NMeD]-Morpholide; lactam N-11)
- HRAS/KRAS (ratio of KD for GDP-bound HRAS wild-type to KD for KRAS) ([1]; SPR): C (A compound having a KD ratio of 0.1 or more and less than 3 is denoted as C)
- NRAS/KRAS (ratio of KD for GDP-bound NRAS wild-type to KD for KRAS) ([2]; SPR): B (a compound having 3 or more and less than 10 is denoted as B)

SMILES: CC[C@H](C)[C@@H]1NC(=O)[C@H](CC)N(C)C(=O)C[C@@H](C(=O)N(C)C)N(C)C(=O)[C@H](C2CCCC2)N(C)C(=O)C2(CC(C)(C)C2)NC(=O)[C@@H]2C[C@H](C)CN2C(=O)[C@H](CCc2ccc(C(F)(F)F)c(OC)c2)NC(=O)CN(C)C(=O)[C@H](Cc2ccc(C)cc2)N2CC/C=C\C[C@@H](C2=O)N(C)C(=O)CN(C)C1=O [PP1836]
- HRAS/KRAS (ratio of KD value for HRAS to KD value for KRAS) [1, 3]: B (a compound having 3 or more and less than 10 is denoted as B)
- NRAS/KRAS (ratio of KD value for NRAS to KD value for KRAS) [2, 4]: A (a compound having 10 or more and less than 20 is denoted as A)

SMILES: CC[C@H](C)[C@@H]1NC(=O)[C@H](CC(C)C)N(C)C(=O)C[C@@H](C(=O)N2CCOCC2)N(C)C(=O)[C@H](C2CCCC2)N(C)C(=O)C2(CCC2)NC(=O)[C@@H]2C[C@@H](OCC3CC3)CN2C(=O)[C@H](CCc2cc(F)c(C(F)(F)F)c(F)c2)NC(=O)CN(C)C(=O)[C@H](Cc2ccc(C(F)(F)F)cc2)N2CCCC[C@@H](C2=O)N(C)C(=O)CN(C)C1=O [PP1000]
- HRAS/KRAS (ratio of KD value with respect to HRAS to KD value with respect to KRAS) [1, 3]: B (a compound having 3 or more and less than 10 is denoted as B)
- NRAS/KRAS (ratio of KD value with respect to NRAS to KD value with respect to KRAS) [2, 4]: B (a compound having 3 or more and less than 10 is denoted as B)

SMILES: CC[C@H](C)[C@@H]1NC(=O)[C@H](CC(C)C)N(C)C(=O)C[C@@H](C(=O)N2CCOCC2)N(C)C(=O)[C@H](CC(C)C)N(C)C(=O)C2(CCCC2)NC(=O)[C@@H]2CCCN2C(=O)[C@H](CCc2ccc(C(F)(F)F)c(Cl)c2)NC(=O)CN(C)C(=O)[C@H](Cc2ccc(C)cc2)N(CC)C(=O)CN(C)C(=O)CN(C)C1=O [PP0045] ([NMeL]I[Sar][Sar][NEtPhe(4-Me)][Sar][hPhe(3-Cl-4-CF3)]P[Ac5c][NMeL][NMeD]-Morpholide; lactam N-11)
- HRAS/KRAS (ratio of KD for GDP-bound HRAS wild-type to KD for KRAS) ([1]; SPR): C (A compound having a KD ratio of 0.1 or more and less than 3 is denoted as C)
- NRAS/KRAS (ratio of KD for GDP-bound NRAS wild-type to KD for KRAS) ([2]; SPR): C (A compound having a KD ratio of 0.1 or more and less than 3 is denoted as C)
